Results from patent US8048880B2, “Treatment of cardiovascular disease and dyslipidemia using secretory phospholipase A2 (SPLA2) inhibitors and SPLA2 inhibitor combination therapies” (Anthera Pharmaceuticals, Inc., priority 2007, dated 2011).

Legend:
Type in all cases: in vivo
ApoE−/− mice [1] = experiment: En face lesion size in ApoE−/− mice on high fat diet, A-002 and/or statin (Example 3); settings: 0.02 g/kg pravastatin in diet alone, 12 weeks
Protocol: (§1) Body weight, plasma total cholesterol, and plasma HDL levels were measured for six groups of twelve ApoE^−/− mice. The mice were then placed on a high fat diet for twelve weeks to allow for formation of significant fatty atherosclerotic plaques. The high fat diet was a modified version of the Western diet (TD.88137, Harlan Teklad, Madison, Wis.) consisting of casein (195 g/kg), DL-methionine (3 g/kg), sucrose (341.44 g/kg), corn starch (150 g/kg), anhydrous milkfat (210 g/kg), cholesterol (1.5 g/kg), cellulose (50 g/kg), mineral mix AlN-76 (Teklad; 35 g/kg), calcium carbonate (4 g/kg), vitamin mix (Teklad #40060; 10 g/kg), ethyoxyquin (antioxidant, 0.04 g/kg), and either 0.0156 g/kg (“low dose”) A-002 (Group A), 1.56 g/kg (“high dose”) A-002 (Group B), 0.02 g/kg pravastatin (Group C), low dose A-002 plus 0.02 g/kg pravastatin (Group D), high dose A-002 plus 0.02 g/kg pravastatin (Group E), or vehicle only (Group F). Mice were administered diets A-F in a blinded manner, and food was provided ad libitum. The diet was initially prepared based on the assumption that each mouse weighed 22.5 g and ate 4.5 g/day. Based on body weight and food consumption, the diet was modified over the 12 week course of treatment to adjust for a body weight of 26 g and a food intake of 2.5 g/day. The dosages of A-002 were selected to cover a range of 100-fold based on pharmacokinetics in ApoE^−/− mice as well as toxicology and previously observed efficacy in this model.
After twelve weeks, mice were sacrificed and plasma, heart tissue, and aortic tissue were collected. En face lesion size was determined via digital imaging analysis. Plaque content (as measured as en face lesion) was reduced in mice administered A-002 alone, statin alone, or A-002 in combination with statin. The reduction in plaque content in mice administered A-002 plus statin was substantially greater than the reduction in mice administered either compound alone (Table 2, compare Group D vs. Groups A and C; Group E vs. Groups B and C). Further, the reduction in plaque content in mice administered A-002 plus statin was substantially greater than the sum of the reduction in plaque content in mice administered A-002 alone and mice administered statin alone.

ApoE−/− mice [2] = experiment: Plasma total cholesterol and HDL levels in ApoE−/− mice, A-002 and/or statin (Example 3); settings: 0.02 g/kg pravastatin in diet alone, 12 weeks
Protocol: as §1
Plasma total cholesterol and HDL levels were measured. Mean levels of total cholesterol were decreased in mice administered A-002 alone or in combination with statin (Table 3, FIG. 6). […] Mean levels of HDL were increased in mice administered A-002 at either dosage (Table 4). This increase was greater in mice administered high dose A-002 plus statin than in mice administered high dose A-002 or statin alone (Table 4 compare Group E vs. Groups B and C; FIG. 7).

[3] = system: human subjects with CVD, specifically stable coronary artery disease; experiment: Serum lipid levels in humans, A-002 twice a day for eight weeks (Example 4)
Protocol: 204 human subjects from the United States with CVD, specifically stable coronary artery disease, were randomized to receive placebo or A-002 via oral administration twice a day over an eight week administration period at dosages of 50 mg, 100 mg, 250 mg, or 500 mg. Levels of various lipids and inflammatory markers were measured at the outset of the trial and at the end of weeks four and/or eight. For data sets with a normal distribution, mean levels of lipids or inflammatory markers were analyzed. For data sets with non-normal distribution, median levels were analyzed. […] In addition, administration of A-002 decreased median levels of CRP (Table 11).
The combined effect of A-002 and statin administration on LDL levels was tested in a population of 332 subjects. This population consisted of the original 204 United States subjects, plus an additional 128 subjects from the Ukraine with stable CAD that received placebo or A-002 based according to the same protocol as the United States subjects. […] Similarly, A-002 decreased LDL levels in subjects receiving a variety of non-statin compounds used in the treatment of CVD, including ezetimibe, AEGR-733/ezetimibe, colesevelam hydrochloride (WelChol®), MK-0524A (Cordaptive®), lisinopril/MC-1 antibody (MC-4232), and Angiotensin Receptor Blocker (ARB)/MC-1 (MC-4262).

[4] = summary Table 20, A-002 alone, statin alone or A-002 plus statin

Row | SMILES | Change in mean % en face lesion vs. control (ApoE−/− mice [1]) [%] | Mean % en face lesion (ApoE−/− mice [1]) [%] | Mean HDL concentration (ApoE−/− mice [2]) [mg/dL] | Mean total cholesterol concentration (ApoE−/− mice [2]) [mg/dL] | increase of mean serum small LDL particle levels ([3]; at eight weeks, United States population, statin alone (Table 14)) [%] | decrease of mean serum LDL levels ([3]; at eight weeks, United States subjects with baseline LDL of 72 mg/dl or greater, text restating Tables 15 and 19) [%] | decrease of mean serum LDL levels ([3]; at week eight, combined United States and Ukraine populations, Tables 16 and 18) [%] | decrease of mean serum LDL levels ([3]; at week four, combined United States and Ukraine populations, Tables 16 and 18) [%] | Observed change following administration: Mean serum [LDL] at week 4 [3, 4] [%] | Observed change following administration: Mean serum [LDL] at week 8 [3, 4] [%] | Observed change following administration: Mean serum [LDL] in ≧72 mg/dl subpopulation at week 8 [3, 4] [%] | Observed change following administration: Mean serum [small LDL particle] at week 8 [3, 4] | Observed change following administration: Mean serum [LDL] at week 8 ([3]; summary Table 22, A-002 alone, ezetimibe alone or A-002 plus ezetimibe) [%]
1 | CC[C@H](C)C(=O)O[C@H]1C[C@H](O)C=C2C=C[C@H](C)[C@H](CC[C@@H](O)C[C@@H](O)CC(=O)O)[C@H]21 [Statin, pravastatin, reference compound] | −0.813 | 4.814 | 14.500 | 1405.417 | 13.26 | 4.40 | 2.15 | 3.36 | −3.36 | −2.15 | −4.40 | +13.26% | –
2 | O=C1[C@H](CC[C@H](O)c2ccc(F)cc2)[C@@H](c2ccc(O)cc2)N1c1ccc(F)cc1 [ezetimibe, reference compound] | – | – | – | – | – | – | – | – | – | – | – | – | −1.7
